The subject of series [1] is neointimal hyperplasia and inflammation. In words: Rapamycin compared with dexamethasone delivered from a stent. Format: in vivo. The following applies: for Inflammation Score: uncoated 0.97 ± 1.00; for Neointimal Area: uncoated 5.24 ± 1.65; for % Area Stenosis: uncoated 54 ± 19. From the text:
Dexamethasone, a potent steroidal anti-inflammatory agent, was used as a reference standard.

The subject of series [2] is human coronary artery smooth muscle cell proliferation. In words: In vitro cell culture study of coronary artery smooth muscle cell proliferation. The format is cell-based. From the text: FIG. 51 is a graph of the inhibition of coronary artery smooth muscle cells by trichostatin A in a cell culture study.
Series [3] has as its system human coronary artery smooth muscle cells. Briefly: Anti-proliferative activity of rapamycin with varying concentrations of mycophenolic acid. The conditions noted are these: non-synchronized cultured human coronary artery smooth muscle cells, two percent fetal bovine serum, mycophenolic acid zero to one thousand nano molar, FIG. 52. The format is cell-based. From the text:
The multiple curves represent various concentrations of mycophenolic acid ranging from zero to one thousand nano molar concentrations. […] This potentiation observed in cultured coronary artery smooth muscle cells preferably translates to an enhancement in anti-restenotic efficacy following vascular injury and a reduction in the required amount of either agent to achieve the desired anti-restenotic effect.

A short description of series [4]: In vivo release kinetics from rapamycin/mycophenolic acid coatings, porcine pharmacokinetics studies. From the text: The topcoat is two hundred micro grams.

Marks after values point to notes of the source that are not given here.

Turning to `C[C@@H]1C[C@H]2[C@@H]3CCC4=CC(=O)C=C[C@]4(C)[C@@]3(F)[C@@H](O)C[C@]2(C)[C@@]1(O)C(=O)CO` [Dexamethasone, dexamethasone], in series [1], the “Inflammation Score” value is reported as 0.39 ± 0.24, the “Neointimal Area” value stood at 4.31 ± 3.02 mm^2 and the “% Area Stenosis” value is recorded as 45 ± 31%.

By IC50 is commonly meant the midpoint of a concentration-inhibition curve. For `CC(/C=C/C(=O)NO)=C\[C@@H](C)C(=O)c1ccc(N(C)C)cc1` [trichostatin A], the “inhibition of human coronary artery smooth muscle cell proliferation” value in series [2] (FIG. 51) is given as “completely inhibit”. For the same compound, the IC50 in series [2] (human coronary artery smooth muscle cells, read-out: anti-proliferative IC50) is about 6 nM.

In the case of `COc1c(C)c2c(c(O)c1C/C=C(\C)CCC(=O)O)C(=O)OC2` [mycophenolic acid], the “effect on the anti-proliferative rapamycin dose response curve” value in series [3] is recorded as “potentiates the anti-proliferative activity of rapamycin”. Besides, in series [4] (EVA/BMA basecoat 600 μg with 30% rapamycin and 30% mycophenolic acid, BMA topcoat 0/100/200 μg, FIG. 54), the “in vivo release of mycophenolic acid from the basecoat” value is “elutes more completely over a shorter duration than the rapamycin”.

Turning to `CO[C@H]1C[C@@H]2CC[C@@H](C)[C@@](O)(O2)C(=O)C(=O)N2CCCC[C@H]2C(=O)O[C@H]([C@H](C)C[C@@H]2CC[C@@H](O)[C@H](OC)C2)CC(=O)[C@H](C)/C=C(\C)[C@@H](O)[C@@H](OC)C(=O)[C@H](C)C[C@H](C)/C=C/C=C/C=C/1C` [Rapamycin, rapamycin], in series [4] (PVDF basecoat 600 μg, rapamycin and mycophenolic acid equally two thirds by weight, 200 μg PVDF topcoat, FIG. 56), the “in vivo release rate” value is on record as “slower release rate than that of mycophenolic acid”. In series [1], the “Inflammation Score” value came out at 0.13 ± 0.19, the “Neointimal Area” value is recorded as 2.47 ± 0.94* mm^2 and the “% Area Stenosis” value was determined as 26 ± 10 %.
